# Results as given in a melting point compilation (Tetko et al.; mined from patent text by program, amines drawn as free bases though some values may be those of a salt).
row,melting point,SMILES
1,216 to 218 °C,O=S(=O)(Cc1ccccc1)n1c2cc(O)c(O)cc2c2ccc(O)c(O)c21
2,172 °C,CCOC(=O)N1CCC(Nc2nc3cncnc3n2Cc2ccco2)CC1
3,153 to 157 °C,O=c1cc(-c2ccccc2)oc2c(C=S)cccc12
4,72 to 74 °C,CN1CCN(c2cccc3ccc(C(=O)NCc4ccc(Cl)cc4)cc23)CC1
5,192 to 196 °C,CC(S)C(Cc1ccccc1)C(=O)Nc1cccc(C(=O)O)c1 (stereo not given)
6,96 to 98 °C,COC(=S)c1cc(N)ccc1C
7,> 250 °C,O=[N+]([O-])c1ccc(-c2cc3c(Nc4cccc(Cl)c4)ncnc3[nH]2)cc1
8,64 to 66 °C,CNCC(O)c1cccn1C (stereo not given)
9,250 °C,O=c1ccc(S(=O)(=O)c2[nH]c3ccccc3c2Cl)n[nH]1
10,154 to 158 °C,CCCCCCCOc1cc2c(cc1C(=O)c1ccc(C(=O)O)cc1)C(C)(C)CCC2(C)C
11,232 to 233 °C,O=C1Nc2ccccc2C12COc1cc3c(cc12)N(Cc1ccccn1)CC=N3 (stereo not given)
12,126 to 127 °C,CCOC(=O)C1=C2COC=CN2C(C)=C(C(=O)OC)C1c1ccccc1Cl (stereo not given)
13,152 °C,COc1ccc2c(c1)C(=O)C1=NCCCN12
14,190 to 192 °C,Fc1cccc(Nc2cc(-c3ccnc(NC4CCOCC4)n3)ccn2)c1
15,148 °C,O=C(Nc1cccc2[nH]ccc12)c1ccccc1OCCCNC1CCCCC1
16,152 to 153 °C,Cc1ccc2occ(CC3=NOS(=O)N3)c2c1 (stereo not given)
17,105 to 108 °C,COC(c1cc(C)c(OCC(=O)O)c(C)c1)(C(F)(F)F)C(F)(F)F
18,225 to 230 °C,O=C1Nc2cc(F)ccc2Nc2ccsc21
19,80 to 81 °C,O=S(=O)(Oc1ccc2sccc2c1)c1ccccc1
20,156 to 157 °C,CCc1cccc(Nc2ncnc3cc(OCc4ccccc4)c(OCCOC)cc23)c1
21,92 to 93 °C,ClC(c1ccccc1)(c1ccccc1)c1ccc2ccccc2c1
22,65 to 67 °C,Fc1cc2c(c(-c3c(Cl)cccc3Cl)c1)OC(CN1CCCC1)C2 (stereo not given)
23,61 to 63 °C,CCC(C1=C(C)C(=O)C(C)=C(C)C1=O)c1ccc(C(C)C)cc1 (stereo not given)
24,188 to 190 °C,CSc1cccc2c1Sc1ccc(O)cc1N2

row,melting point,SMILES
1,218 to 219 °C,Cc1c(N2C[C@@H](NC(=O)OC(C)(C)C)C3(CC3)C2)c(F)c(N)c2c(=O)c(C(=O)O)cn(C3CC3)c12
2,169 °C,OCCn1cnc2c(NCCN3CCC(Nc4nc5ccccc5n4Cc4ccc(F)cc4)CC3)ncnc21
3,134 to 135 °C,COC(=O)C(=Cc1ccc(OCc2ccccc2)cc1)C(=O)OC
4,195 to 197 °C,COc1cn(-c2ccc(N3CCC(F)(F)C3)cc2F)nc(-c2ccnn2-c2ccccc2)c1=O
5,169 to 171 °C,CN(C)C(=O)NCc1cccc2c1CN(C1CCC(=O)NC1=O)C2=O (stereo not given)
6,109 to 110 °C,CCOC(=O)C1=Cc2cc(Cl)c(Oc3ccc(CC)cc3)cc2OC1C(F)(F)F (stereo not given)
7,> 300 °C,O=CNc1cccc2c1C(=O)c1c-2n[nH]c1-c1ccncc1
8,227 to 228 °C,CS(=O)(=O)C1C(O)C(CO)OC1n1ccc(=O)[nH]c1=O (stereo not given)
9,138 °C,CCCCc1nc2cc3ccccc3cc2n1Cc1ccc(C#N)cc1
10,136 to 137 °C,Cc1nnc(-c2ccc3occ(-c4ccc(OS(=O)(=O)C(F)(F)F)cc4)c3c2)o1
11,160 to 162 °C,COc1c(CBr)nc2sc(Cl)cn2c1=O
12,187 to 189 °C,OCC1OC(n2cnc3c(Cl)ncc(F)c32)C(O)C1O (stereo not given)
13,125 to 127 °C,CN(C)C(=S)Sc1sn(CCc2ccccc2)c(=O)c1Cl
14,109 to 110 °C,CC1(C(=O)Nc2ccc(-n3nc(C(F)(F)F)cc3C(F)(F)F)cc2)CC1
15,241 °C,Cc1ccc2c(c1)c(Cl)c(C#N)c(=O)n2C
16,107 to 108 °C,O=C1NCCc2cc(F)ccc21
17,104 to 105 °C,COCCOC(=O)c1cc(NC(=O)OCc2ccccc2)ccc1OCCOC
18,53 to 54 °C,COc1c(C)c(C)c(OC)c(Cc2ccccc2)c1C
19,248 °C,N#Cc1cccc(C2C3=C(CCS3)NC3=C2SCC3)c1
20,105 to 115 °C,CCOC(=O)Cc1coc2c(OC)ccc(C(=O)Cc3c(Cl)cncc3Cl)c12
21,148 °C,CS(=O)(=O)N1C[C@H](S)C[C@H]1COC(=O)Nc1ccccc1
22,61 to 62 °C,CCOCOc1ccc(-c2ccc(C(F)(F)F)cc2)cc1Sc1cc(-c2ccc(C(F)(F)F)cc2)ccc1OCOCC
23,121 to 122 °C,CCOc1nn(-c2cc(C(F)(F)F)ccn2)cc1CCCOc1ccccc1CC(=O)O
24,184 °C,Cc1cccc(CC(=O)N2C[C@@H]3C(=O)CCC(c4ccccc4)(c4ccccc4)[C@@H]3C2)c1 (racemic)

row,melting point,SMILES
1,119 to 122 °C,COc1cc(N=c2scc(-c3ccc(Cl)c(S(=O)(=O)N(C)C)c3)n2C)cc(OC)c1OC
2,176 °C,CCNc1nc(C)cc(O)n1
3,168 to 170 °C,C=Cc1nc(C#N)c(C#N)[nH]1
4,90 to 94 °C,CCOC(=O)Cc1c(C)n(CCCc2ccccc2)c2cccc(OCc3csc(-c4ccccc4)n3)c12
5,195 to 197 °C,CN1C(=O)C(c2cccc(-c3cccnc3F)c2)(c2cnn(CCF)c2)N=C1N (stereo not given)
6,129 to 130 °C,CC(C)(C)OC(=O)N1CCCN(c2cncc(-c3cccc([N+](=O)[O-])c3)c2)CC1
7,162 °C,Cc1nc2sccn2c(=O)c1CCN1CCC(=C2c3ccc(F)cc3CCn3ncnc32)CC1
8,76 to 77 °C,Oc1cccc(OCCCC(O)(O)C(F)(F)F)c1
9,93 to 95 °C,CCOC(=O)Cc1cc(Br)c(OC(=S)N(C)C)c(Br)c1
10,51 °C,O=C1C(c2ccccc2)=C(c2cccc(Cl)c2)C(=O)N1c1ccc(Cl)cc1
11,224 to 226 °C,O=C(CCC(=O)N1CCC(N2Cc3ccccc3NC2=O)CC1)c1ccc(Cl)c(Cl)c1
12,98 to 99 °C,COCC1CN(c2ccc3ccc(N)cc3c2)C(=O)O1 (stereo not given)
13,214 to 219 °C,CCOC(=O)Cc1ccc2c(c1)C(O)c1ccccc1O2 (stereo not given)
14,108 to 110 °C,CCOC(=O)CCCCCN1C(=O)c2cccc3cc(N)cc(c23)C1=O
15,140 to 141 °C,CC(C)(C)c1cnc(C(=O)Nc2cc(-c3cc(NC4CCCNC4)c(=O)[nH]n3)ccc2F)cn1 (stereo not given)
16,198 to 200 °C,O=P(O)(O)C(O)(Cc1cccc(Cl)c1)P(=O)(O)O
17,160 to 162 °C,CCc1c(Br)c2ccccn2c1C(=O)c1ccc(O)cc1
18,337 to 338 °C,Cc1cc(=O)n2c3c(cc(C(O)(C(F)(F)F)C(F)(F)F)cc13)CC2
19,156 to 157 °C,CCNc1ccc(C(=O)CBr)cc1S(N)(=O)=O
20,247 to 249 °C,O=C(OCc1ccccc1)N1CCN(c2cc(=O)[nH]cn2)CC1
21,114 to 121 °C,Cc1cc(O)c(O)c(O)c1
22,146 to 147 °C,O=C1CC(C(=O)O)C2(CCCCC2)C1 (stereo not given)
23,83 °C,COC(C)(CC(=O)Nc1cccc(OCc2ccccc2)c1)OC
24,236 to 240 °C,NC(=O)Cc1cc(Oc2ccc3c(ccn3C(=O)Nc3ccc(N4CCN(C5CC5)CC4)c(C(F)(F)F)c3)c2)ncn1

row,melting point,SMILES
1,167 to 169 °C,CCCC(=O)c1cnc2c(OC)cccc2c1Nc1ccc(OC(C)=O)cc1C
2,179 °C,COC(=O)NCc1nc2ccn(Cc3ccc(F)cc3)cc-2n1
3,135 to 136 °C,Cc1cc(SC(C)C)c(NC(=O)CCCSc2nc3cccc(C(F)(F)F)c3o2)c(SC(C)C)n1
4,95 °C,COC(=O)C1CC(C(CC(O)C(CC2CCCCC2)NC(=O)C(Cc2c[nH]cn2)NC(=O)C(Cc2ccccc2)NC(=O)OC(C)(C)C)C(C)C)OC1=O (stereo not given)
5,264 to 266 °C,CC1(C(=O)N2CCOCC2)COC(c2nc(-c3ccc(F)cc3)c(-c3ccnc(S(C)(=O)=O)n3)[nH]2)OC1 (stereo not given)
6,> 300 °C,O=C(O)c1ccc(C2=NCCO2)cc1
7,140 to 142 °C,CC(C)OC(=O)c1ccc(Cl)cc1S(N)(=O)=O
8,100 to 103 °C,CN(C)S(=O)(=O)c1ccc(C(O)c2cccc(O[Si](C)(C)C(C)(C)C)c2)cc1 (stereo not given)
9,96 to 97 °C,CSc1cc(C#N)c(Oc2ccc(Cl)c(Cl)c2)cn1
10,125 to 127 °C,CC(C)(CCn1cnnc1)NCC(O)c1ccc(O)c(CO)c1 (stereo not given)
11,193 to 194 °C,CCOC(=O)c1c(Cn2cncn2)nc2sc3c(c2c1-c1ccc(OC)c(OC)c1)CCN(C(=O)c1ccccc1)C3
12,123 to 124 °C,CCCCc1nc2cccc(C(=O)OC)c2n1Cc1ccc(-c2ccccc2C#N)cc1
13,247 to 250 °C,CCOC(=O)c1ccc(Nc2cc(C)nc3cn[nH]c23)cc1
14,130 to 133 °C,CC(=O)NC[C@H]1CN(c2ccc3c(c2)CC(C)N3C(=O)CO)C(=O)O1 (stereo not given in full)
15,> 250 °C,O=Cc1c[nH]c2c1ccc1c3cc(Br)ccc3[nH]c12
16,211 to 217 °C,CC(C)Oc1ccc(-n2c(-c3ccc(C(=O)O)cc3)c(C(=O)O)c3cc(Oc4cccc(Cl)c4)ccc32)cc1
17,163 to 165 °C,CC(N)C(=O)N1C(C(=O)O)CC2CCCCC21 (stereo not given)
18,128 °C,CC(=NN(C)C(=O)c1ccccc1)c1ccncc1
19,138 to 139 °C,Cc1ncc([N+](=O)[O-])cc1C(=O)NC(=O)C(C)(C)C
20,180 °C,CC(C)(c1ccc(Oc2ccc(N)cc2)cc1)c1cccc(C(C)(C)c2ccc(Oc3ccc(N)cc3)cc2)c1
21,132 to 133 °C,CCc1noc(-c2cn(-c3ncc(Cl)cc3Cl)cn2)n1
22,253 to 255 °C,O=C(C1CCC1)N1C[C@@H](c2c[nH]c3ccccc23)[C@H](c2cn3c4c(cccc24)CCC3)C1
23,174 to 176 °C,C=C1NC(Nc2ccccc2)=C(C(=O)OCC)C(NN)=C1C#N
24,71.5 to 72.5 °C,CCOC(=O)C(=CNc1ccc(F)c(Cl)c1)C(=O)OCC

row,SMILES,melting point
1,CNc1nc(N)nc(N)n1,269 °C
2,c1nc2c(cc1NC1=NCCN1)COCC2,201 to 202 °C
3,Nc1ncc([N+](=O)[O-])cc1[N+](=O)[O-],190 to 191 °C
4,CC(=O)O[C@]1(C)CC[C@@H]2C[C@H]1OO[C@@]2(C)CS(=O)(=O)c1ccccc1,98 to 99 °C
